The NIST ThermoML archive (doi:10.1016/j.fluid.2015.09.010)

Settings: Gas, single sinker densimeter

F/C=C/C(F)(F)F [trans-1,3,3,3-tetrafluoropropene]
Settings	mass density [kg/m3]
263.17 K, 142.52 kPa	7.8479
263.18 K, 101.66 kPa	5.5042
263.18 K, 124.43 kPa	6.8014
268.16 K, 105.74 kPa	5.6056
268.16 K, 137.08 kPa	7.3536
268.17 K, 168.48 kPa	9.1497
273.11 K, 102.98 kPa	5.3503
273.12 K, 145.02 kPa	7.6483
273.12 K, 198.33 kPa	10.6692
278.14 K, 103.54 kPa	5.2727
278.14 K, 152.59 kPa	7.8948
278.14 K, 200.35 kPa	10.5385
278.14 K, 249.93 kPa	13.3894
283.14 K, 106.17 kPa	5.3014
283.15 K, 201.69 kPa	10.3769
283.15 K, 290.13 kPa	15.3909
283.15 K, 303.37 kPa	16.1704
288.11 K, 185.99 kPa	9.3221
288.12 K, 261.69 kPa	13.4297
288.12 K, 338.42 kPa	17.8195
288.13 K, 107.78 kPa	5.2812
288.13 K, 356.37 kPa	18.8808
293.16 K, 106.73 kPa	5.1257
293.16 K, 210.6 kPa	10.407
293.16 K, 302.68 kPa	15.3725
293.16 K, 408.92 kPa	21.5052

CCC [propane]
Settings	mass density [kg/m3]
258.14 K, 101.23 kPa	2.1368
258.15 K, 201.63 kPa	4.3743
258.15 K, 276.61 kPa	6.1388
263.16 K, 209.67 kPa	4.4546
263.17 K, 101.09 kPa	2.0885
263.17 K, 314.8 kPa	6.8907
268.14 K, 251.5 kPa	5.2792
268.15 K, 101.59 kPa	2.0567
268.16 K, 297.13 kPa	6.3169
268.16 K, 386.83 kPa	8.4369
273.14 K, 250.22 kPa	5.1361
273.15 K, 101.64 kPa	2.0179
273.15 K, 101.65 kPa	2.0177
273.15 K, 462.55 kPa	10.0438
278.14 K, 283.52 kPa	5.7427
278.14 K, 542.76 kPa	11.76
278.15 K, 105.47 kPa	2.0544
283.13 K, 101.63 kPa	1.942
283.13 K, 284.93 kPa	5.6533
283.13 K, 452.56 kPa	9.3303
283.13 K, 615.83 kPa	13.2515
288.21 K, 421.87 kPa	8.433
288.21 K, 538.6 kPa	11.0628
288.22 K, 101.88 kPa	1.9105
288.22 K, 217.75 kPa	4.1713
288.22 K, 322.62 kPa	6.3129
288.22 K, 653.34 kPa	13.8134
293.1 K, 803.62 kPa	17.2181
293.12 K, 106.57 kPa	1.9628
293.12 K, 340.88 kPa	6.5552
